Measured values taken from patent US10208019B2, “GLP-1 receptor agonists and uses thereof” (Pfizer Inc., priority 2016, dated 2019).
Where two headings read alike, the source gives them in different places.

Target: human GLP-1R (Homo sapiens, UniProt P43220, G168S)
Test: CHO GLP-1R Clone H6—Assay 1: HTRF cAMP cell-based functional agonist assay (high GLP-1R density)
Conditions: for EC50: CHO GLP-1R Clone H6, cAMP HTRF, geometric mean; for Emax: read-out: Assay 1 Emax (%), CHO GLP-1R Clone H6
[1] = relative to saturating concentration of full agonist GLP-1 (1 μM), arithmetic mean

human GLP-1R, sequence (P43220 24-463 G168S limits assumed): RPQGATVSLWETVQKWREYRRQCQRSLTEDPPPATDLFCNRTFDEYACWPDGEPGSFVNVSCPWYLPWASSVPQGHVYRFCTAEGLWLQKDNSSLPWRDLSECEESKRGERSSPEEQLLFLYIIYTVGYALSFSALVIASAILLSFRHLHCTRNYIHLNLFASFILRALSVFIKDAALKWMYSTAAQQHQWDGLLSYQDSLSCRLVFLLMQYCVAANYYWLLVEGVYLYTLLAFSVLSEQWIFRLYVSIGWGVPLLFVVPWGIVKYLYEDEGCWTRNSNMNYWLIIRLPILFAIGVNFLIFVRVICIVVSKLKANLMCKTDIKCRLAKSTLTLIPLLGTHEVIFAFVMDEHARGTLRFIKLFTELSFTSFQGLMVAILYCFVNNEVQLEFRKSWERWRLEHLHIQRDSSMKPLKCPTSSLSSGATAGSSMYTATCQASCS

`Cn1c(CN2CCC(c3cccc(OCc4ccc(OC(F)(F)F)cc4)n3)CC2)nc2ccc(C(=O)O)cc21` [Example 9A-09, 1-methyl-2-{[4-(6-{[4-(trifluoromethoxy)benzyl]oxy}pyridin-2-yl)piperidin-1-yl]methyl}-1H-benzimidazole-6-carboxylic acid] gave an EC50 (read-out: Assay 1 EC50) of 880 nM and an Emax [1] of 59%.
`Cn1cc(CCn2c(CN3CCC(c4cccc(OCc5ccc(Cl)cc5F)n4)CC3)nc3ccc(C(=O)O)cc32)nn1` [Example 11A-44, 2-[(4-{6-[(4-chloro-2-fluorobenzyl)oxy]pyridin-2-yl}piperidin-1-yl)methyl]-1-[2-(1-methyl-1H-1,2,3-triazol-4-yl)ethyl]-1H-benzimidazole-6-carboxylic acid] showed an EC50 (read-out: Assay 1 EC50) of 210 nM and an Emax [1] of 77%.
With `Cn1c(CN2CCC(c3cccc(OCc4ccc(C(F)(F)F)cc4F)n3)CC2)nc2ccc(C(=O)O)cc21` [Example 9A-02, 2-{[4-(6-{[2-fluoro-4-(trifluoromethyl)benzyl]oxy}pyridin-2-yl)piperidin-1-yl]methyl}-1-methyl-1H-benzimidazole-6-carboxylic acid] the EC50 (read-out: Assay 1 EC50) was 79 nM and the Emax [1] was 81%.
With `CN1CCOC(CCn2c(CN3CCC(c4cccc(OCc5ccc(Cl)cc5F)n4)CC3)nc3ccc(C(=O)O)cc32)C1` (centres unmarked) [Example 11A-11, 2-[(4-{6-[(4-chloro-2-fluorobenzyl)oxy]pyridin-2-yl}piperidin-1-yl)methyl]-1[2-(4-methylmorpholin-2-yl)ethyl]-1H-benzimidazole-6-carboxylic acid] the EC50 (read-out: Assay 1 EC50) was > 20000 nM.
Work on `CC(c1nncn1C)n1c(CN2CCC(c3cccc(OCc4ccc(Cl)cc4F)n3)CC2)nc2ccc(C(=O)O)cc21` (centres unmarked) [Example 11A-52, 2-[(4-{6-[(4-chloro-2-fluorobenzyl)oxy]pyridin-2-yl}piperidin-1-yl)methyl]-1-[1-(4-methyl-4H-1,2,4-triazol-3-yl)ethyl]-1H-benzimidazole-6-carboxylic acid] yielded an EC50 (read-out: Assay 1 EC50) of 440 nM and an Emax [1] of 86%.
In the case of `Cn1cnnc1CCn1c(CN2CCC(c3cccc(OCc4ccc(Cl)cc4F)n3)CC2)nc2ccc(C(=O)O)cc21` [Example 11A-53, 2-[(4-{6-[(4-chloro-2-fluorobenzyl)oxy]pyridin-2-yl}piperidin-1-yl)methyl]-1-[2-(4-methyl-4H-1,2,4-triazol-3-yl)ethyl]-1H-benzimidazole-6-carboxylic acid], the EC50 (read-out: Assay 1 EC50) is reported as 450 nM and the Emax [1] is reported as 71%.
Work on `O=C(O)c1ccc2nc(CN3CCC(c4cccc(OCc5ccc(Cl)cc5F)n4)CC3)n(CC3CCOCC3)c2c1` [Example 11A-49, 2-[(4-{6-[(4-chloro-2-fluorobenzyl)oxy]pyridin-2-yl}piperidin-1-yl)methyl]-1-(tetrahydro-2H-pyran-4-ylmethyl)-1H-benzimidazole-6-carboxylic acid] yielded an EC50 (read-out: Assay 1 EC50) of 380 nM and an Emax [1] of 68%.
Compound `Cn1c(CN2CCC(c3cccc(OCc4ccc(Cl)cc4)n3)CC2)nc2ccc(C(=O)O)cc21` [Example 9A-05, 2-[(4-{6-[(4-chlorobenzyl)oxy]pyridin-2-yl}piperidin-1-yl)methyl]-1-methyl-1H-benzimidazole-6-carboxylic acid] has an EC50 (read-out: Assay 1 EC50) of 2700 nM and an Emax [1] of 85%.
`Cn1c(CN2CCC(c3cccc(OCc4ccc(F)cc4F)n3)CC2)nc2ccc(C(=O)O)cc21` [Example 9A-03, 2-[(4-{6-[(2,4-difluorobenzyl)oxy]pyridin-2-yl}piperidin-1-yl)methyl]-1-methyl-1H-benzimidazole-6-carboxylic acid] showed an EC50 (read-out: Assay 1 EC50) of 200 nM and an Emax [1] of 79%.
Compound `CCn1c(CN2CCC(c3cccc(OCc4ccc(Cl)cc4F)n3)CC2)nc2ccc(C(=O)O)cc21` [Example 10A-39] has an EC50 (read-out: Assay 1 EC50) of 170 nM and an Emax [1] of 69%.
With `CC(C)c1cc(Cn2c(CN3CCC(c4cccc(OCc5ccc(Cl)cc5F)n4)CC3)nc3ccc(C(=O)O)cc32)on1` [Example 11A-06, 2-[(4-{6-[(4-chloro-2-fluorobenzyl)oxy]pyridin-2-yl}piperidin-1-yl)methyl]-1-{[3-(propan-2-yl)-1,2-oxazol-5-yl]methyl}-1H-benzimidazole-6-carboxylic acid] the EC50 (read-out: Assay 1 EC50) was > 20000 nM.
Work on `Cn1cnc(Cn2c(CN3CCC(c4cccc(OCc5ccc(Cl)cc5F)n4)CC3)nc3ccc(C(=O)O)cc32)c1` [Example 10A-30] yielded an EC50 (read-out: Assay 1 EC50) of 550 nM and an Emax [1] of 71%.
With `CN1CC(Cn2c(CN3CCC(c4cccc(OCc5ccc(Cl)cc5F)n4)CC3)nc3ccc(C(=O)O)cc32)C1` [Example 10A-19] the Emax [1] was 100%.
Compound `COCCn1c(CN2CCN(c3cccc(OCc4ccc(Cl)cc4F)n3)[C@@H](C)C2)nc2ccc(C(=O)O)cc21` [Example 1A-13, 2-{[(3S)-4-{6-[(4-chloro-2-fluorobenzyl)oxy]pyridin-2-yl}-3-methylpiperazin-1-yl]methyl}-1-(2-methoxyethyl)-1H-benzimidazole-6-carboxylic acid] has an EC50 (read-out: Assay 1 EC50) of 210 nM and an Emax [1] of 66%.
`COCCCn1c(CN2CCC(c3cccc(OCc4ccc(Cl)cc4F)n3)CC2)nc2ccc(C(=O)O)cc21` [Example 11A-38, 2-[(4-{6-[(4-chloro-2-fluorobenzyl)oxy]pyridin-2-yl}piperidin-1-yl)methyl]-1-(3-methoxypropyl)-1H-benzimidazole-6-carboxylic acid] was tested, and the EC50 (read-out: Assay 1 EC50) was 120 nM and the Emax [1] was 80%.
With `COCCn1c(CN2CC[C@@H](c3cccc(OCc4ccc(Cl)cc4F)n3)[C@@H](O)C2)nc2ccc(C(=O)O)cc21` (racemic) [Example 1A-24, rac-2-{[(3R,4S)-4-{6-[(4-chloro-2-fluorobenzyl)oxy]pyridin-2-yl}-3-hydroxypiperidin-1-yl]methyl}-1-(2-methoxyethyl)-1H-benzimidazole-6-carboxylic acid] the EC50 (Assay 1 EC50 (nM)) was > 11000 nM and the Emax [1] was 84%.
For `N#Cc1ccc(COc2cccc(C3CCN(Cc4nc5ccc(C(=O)O)cc5n4CC4CCOC4)CC3)n2)c(F)c1` (single isomer, unassigned; enantiomer 1) [Example 14A-09, 2-[(4-{6-[(4-cyano-2-fluorobenzyl)oxy]pyridin-2-yl}piperidin-1-yl)methyl]-1-(tetrahydrofuran-3-ylmethyl)-1H-benzimidazole-6-carboxylic acid,enantiomer 1], the “Assay 1 Emax (%)” value (CHO GLP-1R Clone H6, relative to saturating concentration of full agonist GLP-1 (1 μM), arithmetic mean) was 73%.
With `CN1CCOC(Cn2c(CN3CCC(c4cccc(OCc5ccc(Cl)cc5F)n4)CC3)nc3ccc(C(=O)O)cc32)C1` (centres unmarked) [Example 11A-63, 2-[(4-{6-[(4-chloro-2-fluorobenzyl)oxy]pyridin-2-yl}piperidin-1-yl)methyl]-1-[(4-methylmorpholin-2-yl)methyl]-1H-benzimidazole-6-carboxylic acid] the EC50 (read-out: Assay 1 EC50) was 2500 nM and the Emax [1] was 71%.
`Cc1nc(C(C)n2c(CN3CCC(c4cccc(OCc5ccc(Cl)cc5F)n4)CC3)nc3ccc(C(=O)O)cc32)n[nH]1` (centres unmarked) [Example 11A-67, 2-[(4-{6-[(4-chloro-2-fluorobenzyl)oxy]pyridin-2-yl}piperidin-1-yl)methyl]-1-[1-(5-methyl-1H-1,2,4-triazol-3-yl)ethyl]-1H-benzimidazole-6-carboxylic acid] was tested, and the EC50 (read-out: Assay 1 EC50) was 9300 nM and the Emax [1] was 100%.
In the case of `Cn1c(CN2CCC(c3cccc(OCc4cccc(C#N)c4)n3)CC2)nc2ccc(C(=O)O)cc21` [Example 9A-12, 2-[(4-{6-[(3-cyanobenzyl)oxy]pyridin-2-yl}piperidin-1-yl)methyl]-1-methyl-1H-benzimidazole-6-carboxylic acid], the EC50 (read-out: Assay 1 EC50) is reported as > 17000 nM and the Emax [1] is reported as 100%.
With `O=C(O)c1ccc2nc(CN3CCC(c4cccc(OCc5ccc(Cl)cc5F)n4)CC3)n(C[C@H]3CCOC3)c2c1` [Example 10A-72, 2-[(4-{6-[(4-chloro-2-fluorobenzyl)oxy]pyridin-2-yl}piperidin-1-yl)methyl]-1-[(3R)-tetrahydrofuran-3-ylmethyl]-1H-benzimidazole-6-carboxylic acid] the EC50 (read-out: Assay 1 EC50) was 3.4 nM and the Emax [1] was 79%.
In the case of `CN1CCC(CCn2c(CN3CCC(c4cccc(OCc5ccc(Cl)cc5F)n4)CC3)nc3ccc(C(=O)O)cc32)CC1` [Example 11A-07, 2-[(4-{6-[(4-chloro-2-fluorobenzyl)oxy]pyridin-2-yl}piperidin-1-yl)methyl]-1-[2-(1-methylpiperidin-4-yl)ethyl]-1H-benzimidazole-6-carboxylic acid], the EC50 (read-out: Assay 1 EC50) is reported as > 20000 nM.
For `O=C(O)c1ccc2nc(CN3CCC(c4cccc(OCc5ccc(Cl)cc5F)n4)CC3)n(CCC3CCCCO3)c2c1` (centres unmarked) [Example 11A-05, 2-[(4-{6-[(4-chloro-2-fluorobenzyl)oxy]pyridin-2-yl}piperidin-1-yl)methyl]-1-[2-(tetrahydro-2H-pyran-2-yl)ethyl]-1H-benzimidazole-6-carboxylic acid], the EC50 (read-out: Assay 1 EC50) was > 20000 nM.
`CCc1noc(Cn2c(CN3CCC(c4cccc(OCc5ccc(Cl)cc5F)n4)CC3)nc3ccc(C(=O)O)cc32)n1` [Example 10A-52] gave an EC50 (read-out: Assay 1 EC50) of 1300 nM and an Emax [1] of 79%.
`Cn1c(CN2CCC(c3cccc(OCc4c(F)cccc4F)n3)CC2)nc2ccc(C(=O)O)cc21` [Example 9A-04, 2-[(4-{6-[(2,6-difluorobenzyl)oxy]pyridin-2-yl}piperidin-1-yl)methyl]-1-methyl-1H-benzimidazole-6-carboxylic acid] showed an EC50 (read-out: Assay 1 EC50) of 2900 nM and an Emax [1] of 89%.
In the case of `CN1CCC1Cn1c(CN2CCC(c3cccc(OCc4ccc(Cl)cc4F)n3)CC2)nc2ccc(C(=O)O)cc21` (centres unmarked) [Example 10A-79], the EC50 (read-out: Assay 1 EC50) is reported as 33 nM and the Emax [1] is reported as 80%.
For `Cn1cc(CCn2c(CN3CCC(c4cccc(OCc5ccc(Cl)cc5F)n4)CC3)nc3ccc(C(=O)O)cc32)cn1` [Example 11A-32, 2-[(4-{6-[(4-chloro-2-fluorobenzyl)oxy]pyridin-2-yl}piperidin-1-yl)methyl]-1-[2-(1-methyl-1H-pyrazol-4-yl)ethyl]-1H-benzimidazole-6-carboxylic acid], the EC50 (read-out: Assay 1 EC50) was 87 nM and the Emax [1] was 83%.
For `Cc1ccccc1COc1cccc(C2CCN(Cc3nc4ccc(C(=O)O)cc4n3C)CC2)n1` [Example 9A-11, 1-methyl-2-[(4-{6-[(2-methylbenzyl)oxy]pyridin-2-yl}piperidin-1-yl)methyl]-1H-benzimidazole-6-carboxylic acid], the EC50 (read-out: Assay 1 EC50) was 1600 nM and the Emax [1] was 83%.
